Drawing on BindingDB's records for patent US11414428 (Auckland UniServices Limited, 2022), this text covers IC50 for one molecule.

Structures are written as SMILES.

The test has as its target Indoleamine 2,3-dioxygenase 1 (Homo sapiens, UniProt P14902). Nature of the test: Enzymatic Assay. As for the experimental part:
Recombinant human IDO1 (rhIDO1) was expressed and purified from cultures of EC538 strain of E. coli transformed with pREP4 and pQE9-IDO plasmid. Reaction mixes were set up in 384-well microplates containing 50 mM phosphate buffer, 10 mM ascorbic, 10 μM methylene blue, 100 μg/mL catalase, 80 μM TRP, 0.01% Tween 20 (v/v) mixed with rhIDO1 (15 μL) at a final concentration of 9 nM in a total volume of 30 μL assay medium. The plates were incubated at 37° C. for 30 min, and the enzymatic reaction was terminated by adding piperidine (200 mM) and heated at 65° C. for 20 min. Fluorescence intensity was read at λex 400 nm and λem 500 nm. Test compounds were dissolved in 100% DMSO and pre-diluted in assay medium prior to adding rhIDO1.

Sequence of Indoleamine 2,3-dioxygenase 1 (P14902 whole entry): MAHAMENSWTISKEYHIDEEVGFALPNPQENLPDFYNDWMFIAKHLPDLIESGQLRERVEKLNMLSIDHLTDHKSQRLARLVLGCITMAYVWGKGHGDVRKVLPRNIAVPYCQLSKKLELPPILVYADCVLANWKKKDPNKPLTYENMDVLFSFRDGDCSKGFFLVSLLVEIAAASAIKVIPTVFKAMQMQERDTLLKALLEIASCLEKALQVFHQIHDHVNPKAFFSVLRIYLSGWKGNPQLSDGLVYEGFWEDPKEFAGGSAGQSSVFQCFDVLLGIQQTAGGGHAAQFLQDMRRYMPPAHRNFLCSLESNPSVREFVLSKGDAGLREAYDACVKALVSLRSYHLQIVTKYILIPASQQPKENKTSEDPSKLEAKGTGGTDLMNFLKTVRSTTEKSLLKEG

As a reminder, the IC50 is the concentration that gives 50% inhibition. The low end stands for higher potency, the high end for lower potency. As for `Cc1nc2onc(N)c2c(C)c1Cl` [US11414428, Compound 1], the IC50 entry was “in the range around 5.5 µM”.
